Measurements: patent publication US8999970B2, “Administration of an anti-obesity compound to individuals with renal impairment” (Arena Pharmaceuticals, Inc., priority 2010, dated 2015)
Entries after “also recorded” stand apart in the source; their conditions may differ.

Experiment: Clinical trial APD356-016: plasma and urine pharmacokinetics of lorcaserin, M1 and M5 after a 10 mg dose in subjects with renal impairment
Details: for Ae0-120 / fe0-120: urine; for CL renal / AUC(0-t) / Cmax / half-life / AUC0-inf / MRT inf / Vd/F / tmax: human, 10 mg; for CL renal: plasma and urine, ClR/F; for AUC(0-t) / Cmax / half-life / AUC0-inf / MRT inf / Vd/F / tmax: plasma; for MRT inf: MRTinf; for Vd/F: Vz/F; for tmax: median
Procedure: The interaction of renal insufficiency with the pharmacokinetics, tolerability and safety of lorcaserin were evaluated in a formal PK study in subjects with renal impairment and in the populations studied in phase 2 and phase 3 clinical studies.
The pharmacokinetic properties of lorcaserin in subjects with varying degrees of renal impairment were evaluated in clinical trial APD356-016. At the time of study conduct and analysis, subjects were assigned to renal impairment groups based on creatinine clearance calculated using IDEAL body weight (Table 1). This calculation was used to avoid overestimation of creatinine clearance due to the excess body weight (overweight and obese subjects were enrolled in the trial). Summaries of pharmacokinetic properties by group assignment using creatinine clearance calculated using ACTUAL body weights are also provided in the sections that follow.
The FDA expects a reasonable margin between anticipated exposures and exposures that may produce toxicity. A reasonable margin can vary depending on the expected toxicity, but generally is an order of magnitude (10 times), but can sometimes be less for mild toxicity.
Table 13. Summary of Plasma Concentrations (ng/mL) of HSO3-APD356 Metabolite over Time by Group: Severe Renal Impairment Not Receiving Dialysis (see Table 13 next page)
Subject number 3140-505 was on dialysis and grouped in the end stage renal disease group.

[1] = 10 mg dose, Mild, actual BW groups
[2] = 10 mg dose, Mild, ideal BW groups
[3] = 10 mg dose, Moderate, actual BW groups
[4] = 10 mg dose, Moderate, ideal BW groups
[5] = 10 mg dose, Normal, actual BW groups
[6] = 10 mg dose, Normal, ideal BW groups
[7] = 10 mg dose, Severe N = 1, actual BW groups
[8] = 10 mg dose, Severe, ideal BW groups
[9] = Moderate N = 8, actual BW groups
[10] = oral, 10 mg dose, Mild, actual BW groups
[11] = oral, 10 mg dose, Mild, ideal BW groups
[12] = oral, 10 mg dose, Moderate, actual BW groups
[13] = oral, 10 mg dose, Moderate, ideal BW groups
[14] = oral, 10 mg dose, Normal, actual BW groups
[15] = oral, 10 mg dose, Normal, ideal BW groups
[16] = oral, 10 mg dose, Severe N = 1, actual BW groups
[17] = oral, 10 mg dose, Severe, ideal BW groups

C[C@H]1CNCCc2ccc(Cl)cc21 [Lorcaserin, (R)-8-chloro-1-methyl-2,3,4,5-tetrahydro-1H-3-benzazepine]
% AUC0-inf Extrapolated [1]: 4.54%
Cl/F [1]: 17.3 L/h
ClNR/F [1]: 16.7 L/h
T1/2z [1]: 14.6 h
% AUC0-inf Extrapolated [2]: 3.36%
Cl/F [2]: 13.3 L/h
ClNR/F [2]: 12.8 L/h
T1/2z [2]: 13.0 h
% AUC0-inf Extrapolated [3]: 3.74%
Cl/F [3]: 18.9 L/h
ClNR/F [3]: 18.2 L/h
T1/2z [3]: 14.9 h
% AUC0-inf Extrapolated [4]: 4.92%
Cl/F [4]: 17.7 L/h
ClNR/F [4]: 17.0 L/h
T1/2z [4]: 15.9 h
% AUC0-inf Extrapolated [5]: 3.57%
Cl/F [5]: 15.6 L/h
ClNR/F [5]: 15.1 L/h
T1/2z [5]: 12.1 h
% AUC0-inf Extrapolated [6]: 3.81%
Cl/F [6]: 17.5 L/h
ClNR/F [6]: 17.1 L/h
T1/2z [6]: 11.0 h
% AUC0-inf Extrapolated [7]: 3.70%
Cl/F [7]: 17.6 L/h
ClNR/F [7]: 17.2 L/h
T1/2z [7]: 18.8 h
% AUC0-inf Extrapolated [8]: 3.59%
Cl/F [8]: 19.7 L/h
ClNR/F [8]: 19.0 L/h
T1/2z [8]: 15.0 h
Ae0-120 [1]: 297 µg
fe0-120 [1]: 0.0352
Ae0-120 [2]: 326 µg
fe0-120 [2]: 0.0386
Ae0-120 [3]: 304 µg
fe0-120 [3]: 0.0360
Ae0-120 [4]: 327 µg
fe0-120 [4]: 0.0387
Ae0-120 [5]: 257 µg
fe0-120 [5]: 0.0304
Ae0-120 [6]: 185 µg
fe0-120 [6]: 0.0220
Ae0-120 [7]: 204 µg
fe0-120 [7]: 0.0242
Ae0-120 [8]: 280 µg
fe0-120 [8]: 0.0332
Removal by hemodialysis (ESRD): not removed; also recorded: not cleared
Geometric Mean Ratio of LSM (90% CI), AUC0-inf, relative to Normal Renal Function Group (Mild N = 10, actual BW groups): 0.921 (0.735, 1.15)
Geometric Mean Ratio of LSM (90% CI), AUClast, relative to Normal Renal Function Group (Mild N = 10, actual BW groups): 0.912 (0.723, 1.15)
Geometric Mean Ratio of LSM (90% CI), Cmax, relative to Normal Renal Function Group (Mild N = 10, actual BW groups): 0.819 (0.652, 1.03)
Geometric Mean Ratio of LSM (90% CI), AUC0-inf, relative to Normal Renal Function Group (Mild, ideal BW groups): 1.30 (1.01, 1.67)
Geometric Mean Ratio of LSM (90% CI), AUClast, relative to Normal Renal Function Group (Mild, ideal BW groups): 1.31 (1.01, 1.69)
Geometric Mean Ratio of LSM (90% CI), Cmax, relative to Normal Renal Function Group (Mild, ideal BW groups): 0.991 (0.764, 1.29)
Geometric Mean Ratio of LSM (90% CI), AUC0-inf, relative to Normal Renal Function Group [9]: 0.869 (0.683, 1.11)
Geometric Mean Ratio of LSM (90% CI), AUClast, relative to Normal Renal Function Group [9]: 0.868 (0.678, 1.11)
Geometric Mean Ratio of LSM (90% CI), Cmax, relative to Normal Renal Function Group [9]: 0.738 (0.579, 0.941)
Geometric Mean Ratio of LSM (90% CI), AUC0-inf, relative to Normal Renal Function Group (Moderate, ideal BW groups): 1.03 (0.806, 1.32)
Geometric Mean Ratio of LSM (90% CI), AUClast, relative to Normal Renal Function Group (Moderate, ideal BW groups): 1.02 (0.791, 1.32)
Geometric Mean Ratio of LSM (90% CI), Cmax, relative to Normal Renal Function Group (Moderate, ideal BW groups): 0.697 (0.537, 0.904)
Geometric Mean Ratio of LSM (90% CI), AUC0-inf, relative to Normal Renal Function Group (Severe N = 1, actual BW groups): 0.861 (0.494, 1.50)
Geometric Mean Ratio of LSM (90% CI), AUClast, relative to Normal Renal Function Group (Severe N = 1, actual BW groups): 0.861 (0.487, 1.52)
Geometric Mean Ratio of LSM (90% CI), Cmax, relative to Normal Renal Function Group (Severe N = 1, actual BW groups): 0.468 (0.267, 0.821)
Geometric Mean Ratio of LSM (90% CI), AUC0-inf, relative to Normal Renal Function Group (Severe, ideal BW groups): 0.931 (0.727, 1.19)
Geometric Mean Ratio of LSM (90% CI), AUClast, relative to Normal Renal Function Group (Severe, ideal BW groups): 0.933 (0.723, 1.20)
Geometric Mean Ratio of LSM (90% CI), Cmax, relative to Normal Renal Function Group (Severe, ideal BW groups): 0.686 (0.529, 0.891)
CL renal [10]: 10.3 mL/min
CL renal [11]: 8.88 mL/min
CL renal [12]: 11.1 mL/min
CL renal [13]: 11.1 mL/min
CL renal [14]: 7.8 mL/min
CL renal [15]: 6.53 mL/min
CL renal [16]: 7.27 mL/min
CL renal [17]: 11 mL/min
AUC(0-t) (AUC24 hr, ESRD, 10 mg QD Authentic, Day 1): 618 ng·h/mL
AUC(0-t) (AUC24 hr, Mild, 10 mg QD Authentic, Day 1): 623 ng·h/mL
AUC(0-t) (AUC24 hr, Moderate, 10 mg QD Authentic, Day 1): 515 ng·h/mL
AUC(0-t) (AUC24 hr, Normal, 10 mg QD Authentic, Day 1): 482 ng·h/mL
AUC(0-t) (AUC24 hr, Severe, 10 mg QD Authentic, Day 1): 469 ng·h/mL
Cmax (ESRD, 10 mg QD Authentic, Day 1): 27.2 ng/mL
Cmax (Mild, 10 mg QD Authentic, Day 1): 36.3 ng/mL
Cmax (Moderate, 10 mg QD Authentic, Day 1): 26.2 ng/mL
Cmax (Normal, 10 mg QD Authentic, Day 1): 37 ng/mL
Cmax (Severe, 10 mg QD Authentic, Day 1): 26.4 ng/mL
half-life (t1/2, ESRD, 10 mg QD Authentic, Day 1): 43.8 h
half-life (t1/2, Mild, 10 mg QD Authentic, Day 1): 13 h
half-life (t1/2, Moderate, 10 mg QD Authentic, Day 1): 15.9 h
half-life (t1/2, Normal, 10 mg QD Authentic, Day 1): 11 h
half-life (t1/2, Severe, 10 mg QD Authentic, Day 1): 15 h
AUC0-inf [10]: 535 ng·h/mL
AUC0-inf [11]: 644 ng·h/mL
AUC0-inf [12]: 516 ng·h/mL
AUC0-inf [13]: 538 ng·h/mL
AUC0-inf [14]: 569 ng·h/mL
AUC0-inf [15]: 501 ng·h/mL
AUC0-inf [16]: 478 ng·h/mL
AUC0-inf [17]: 486 ng·h/mL
AUC(0-t) (oral, AUC0-t, 10 mg dose, Mild, actual BW groups): 513 ng·h/mL
AUC(0-t) (oral, AUC0-t, 10 mg dose, Mild, ideal BW groups): 623 ng·h/mL
AUC(0-t) (oral, AUC0-t, 10 mg dose, Moderate, actual BW groups): 497 ng·h/mL
AUC(0-t) (oral, AUC0-t, 10 mg dose, Moderate, ideal BW groups): 515 ng·h/mL
AUC(0-t) (oral, AUC0-t, 10 mg dose, Normal, actual BW groups): 549 ng·h/mL
AUC(0-t) (oral, AUC0-t, 10 mg dose, Normal, ideal BW groups): 482 ng·h/mL
AUC(0-t) (oral, AUC0-t, 10 mg dose, Severe N = 1, actual BW groups): 461 ng·h/mL
AUC(0-t) (oral, AUC0-t, 10 mg dose, Severe, ideal BW groups): 469 ng·h/mL
Cmax [10]: 30.2 ng/mL
Cmax [11]: 36.3 ng/mL
Cmax [12]: 27.6 ng/mL
Cmax [13]: 26.2 ng/mL
Cmax [14]: 36 ng/mL
Cmax [15]: 37 ng/mL
Cmax [16]: 16.4 ng/mL
Cmax [17]: 26.4 ng/mL
MRT inf [10]: 19.3 h
MRT inf [11]: 18 h
MRT inf [12]: 20.8 h
MRT inf [13]: 21.1 h
MRT inf [14]: 16.5 h
MRT inf [15]: 14.8 h
MRT inf [16]: 30.8 h
MRT inf [17]: 21.7 h
Vd/F [10]: 361 L
Vd/F [11]: 248 L
Vd/F [12]: 381 L
Vd/F [13]: 399 L
Vd/F [14]: 266 L
Vd/F [15]: 276 L
Vd/F [16]: 479 L
Vd/F [17]: 401 L
tmax [10]: 2.5 h
tmax [11]: 4.5 h
tmax [12]: 2.5 h
tmax [13]: 2.5 h
tmax [14]: 2 h
tmax [15]: 2 h
tmax [16]: 4 h
tmax [17]: 3 h
Fractional excretion (normal renal function): 2.2%
